These results are taken from patent US10233173B2, “Substituted 1,2,3-triazoles as NR2B-selective NMDA modulators” (JANSSEN PHARMACEUTICA NV, priority 2016, dated 2019).

The target of one assay is human GluN1/GluN2B NMDA receptors (Homo sapiens, UniProt Q05586+Q13224). Briefly: Cell-based calcium flux (FLIPR) assay on cloned human NR1/NR2B ion channels expressed in mammalian cells. To be noted: standard assay; glutamate at ~EC80; FLIPR calcium flux. Put shortly: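 Calcium influx followed by FLIPR fluorescence after 5 min compound exposure and a further 5 min co-agonist challenge: 10 μM glycine with glutamate at ~EC80 (standard) or EC40 (HTS).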
Sequence of human GluN1/GluN2B NMDA receptors (Q13224 27-1484, other chains not shown): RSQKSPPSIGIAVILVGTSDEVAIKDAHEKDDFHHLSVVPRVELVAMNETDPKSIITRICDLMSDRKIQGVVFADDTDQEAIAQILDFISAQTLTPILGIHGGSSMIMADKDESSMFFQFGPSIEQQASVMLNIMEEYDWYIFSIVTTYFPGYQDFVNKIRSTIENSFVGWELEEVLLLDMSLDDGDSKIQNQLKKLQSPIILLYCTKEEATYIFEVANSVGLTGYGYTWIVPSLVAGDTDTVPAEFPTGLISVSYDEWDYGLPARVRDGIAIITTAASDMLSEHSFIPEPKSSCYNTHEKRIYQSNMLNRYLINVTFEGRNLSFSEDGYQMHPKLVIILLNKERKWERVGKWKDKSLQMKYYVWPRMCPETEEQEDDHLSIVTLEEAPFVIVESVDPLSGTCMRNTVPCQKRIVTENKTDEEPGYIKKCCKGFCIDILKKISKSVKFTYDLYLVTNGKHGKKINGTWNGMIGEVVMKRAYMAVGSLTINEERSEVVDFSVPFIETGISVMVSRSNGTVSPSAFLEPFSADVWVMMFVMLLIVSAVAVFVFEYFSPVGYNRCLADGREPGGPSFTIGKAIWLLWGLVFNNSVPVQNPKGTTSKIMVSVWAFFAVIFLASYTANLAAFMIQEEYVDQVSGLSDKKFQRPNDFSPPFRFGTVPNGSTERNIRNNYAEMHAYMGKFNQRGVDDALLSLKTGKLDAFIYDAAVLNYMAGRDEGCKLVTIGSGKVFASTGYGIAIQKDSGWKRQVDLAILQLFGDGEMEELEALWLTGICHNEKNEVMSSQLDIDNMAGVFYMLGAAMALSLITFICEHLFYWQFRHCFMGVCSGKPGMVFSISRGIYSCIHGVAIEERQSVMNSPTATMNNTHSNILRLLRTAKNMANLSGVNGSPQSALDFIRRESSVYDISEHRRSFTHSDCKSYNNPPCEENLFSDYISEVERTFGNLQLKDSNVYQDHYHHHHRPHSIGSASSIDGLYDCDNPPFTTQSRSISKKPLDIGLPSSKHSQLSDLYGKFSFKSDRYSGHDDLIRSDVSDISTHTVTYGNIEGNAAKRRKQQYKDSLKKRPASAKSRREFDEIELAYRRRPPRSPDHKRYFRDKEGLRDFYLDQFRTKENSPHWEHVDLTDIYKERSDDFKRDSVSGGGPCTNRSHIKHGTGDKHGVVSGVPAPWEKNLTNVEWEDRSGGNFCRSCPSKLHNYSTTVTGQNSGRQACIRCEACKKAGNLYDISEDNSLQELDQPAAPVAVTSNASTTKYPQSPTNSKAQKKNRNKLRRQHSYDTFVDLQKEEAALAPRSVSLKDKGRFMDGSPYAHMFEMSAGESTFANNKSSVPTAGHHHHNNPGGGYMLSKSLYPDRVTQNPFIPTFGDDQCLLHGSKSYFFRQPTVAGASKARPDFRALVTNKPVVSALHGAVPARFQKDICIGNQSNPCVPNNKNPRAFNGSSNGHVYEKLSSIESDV
(Calcium flux is commonly read through the fluorescence of an indicator in the cells.)
Consider `CC(F)(F)c1cc(-n2cc(COc3ncc(C(F)F)cn3)nn2)ccc1F` [Example 562, 2-[[1-[3-(1,1-Difluoroethyl)-4-fluoro-phenyl]triazol-4-yl]methoxy]-5-(difluoromethyl)pyrimidine], for which the IC50 came out at 0.014 µM.
With `COC(C)(C)c1cnc(OCc2cn(-c3ccc(F)c(C(F)(F)F)c3)nn2)nc1` [Example 436, 2-[[1-[4-Fluoro-3-(trifluoromethyl)phenyl]triazol-4-yl]methoxy]-5-(1-methoxy-1-methyl-ethyl)pyrimidine], the half-maximal inhibitory concentration (IC50) is 3.26 µM.
With `FC(F)c1ccnc(OCc2cn(-c3ccc(Cl)c(C(F)F)c3)nn2)n1` [Example 628, 2-[[1-[4-Chloro-3-(difluoromethyl)phenyl]triazol-4-yl]methoxy]-4-(difluoromethyl)pyrimidine], the IC50 was determined as 0.042 µM.
Still for that read-out and setting: under `FCCCc1cnc(OCc2cn(-c3ccc(Cl)c(C(F)F)c3)nn2)nc1` [Example 637, 2-[[1-[4-Chloro-3-(difluoromethyl)phenyl]triazol-4-yl]methoxy]-5-(3-fluoropropyl)pyrimidine] stands 0.011 µM; under `CC(C)(O)c1cnc(OCc2cn(-c3ccc(F)c(C(F)(F)F)c3)nn2)nc1` [Example 435, 2-[2-[[1-[4-Fluoro-3-(trifluoromethyl)phenyl]triazol-4-yl]methoxy]pyrimidin-5-yl]propan-2-ol], 0.098 µM.
On the same count and under the same terms, under `Fc1ccc(-n2cc(COc3ncc(N4CC(F)(F)C4)cn3)nn2)cc1C(F)F` [Example 419, 5-(3,3-Difluoroazetidin-1-yl)-2-((1-(3-(difluoromethyl)-4-fluorophenyl)-1H-1,2,3-triazol-4-yl)methoxy)pyrimidine] stands 0.029 µM; under `CCc1cnc(OCc2cn(-c3ccc(F)c(F)c3)nn2)nc1` [Example 602, 2-[[1-(3,4-Difluorophenyl)triazol-4-yl]methoxy]-5-ethyl-pyrimidine], 0.023 µM; under `Cc1cnc(OCc2nnn(-c3ccc(F)c(C(C)(F)F)c3)c2C)nc1C` [Example 595, 2-[[1-[3-(1,1-Difluoroethyl)-4-fluoro-phenyl]-5-methyl-triazol-4-yl]methoxy]-4,5-dimethyl-pyrimidine], 0.706 µM.
Same read-out and setting: under `Fc1ccc(-n2cc(COc3ncc(C(F)(F)F)cn3)nn2)c(F)c1C(F)F` [Example 652, 2-[[1-[3-(Difluoromethyl)-2,4-difluoro-phenyl]triazol-4-yl]methoxy]-5-(trifluoromethyl)pyrimidine] stands 0.112 µM; under `Cc1cc(-n2cc(COc3ncc(C4CC4)cn3)nn2)c(F)cc1F` [Example 658, 5-Cyclopropyl-2-[[1-(2,4-difluoro-5-methyl-phenyl)triazol-4-yl]methoxy]pyrimidine], 0.424 µM; under `CC(=O)c1cnc(OCc2cn(-c3ccc(Cl)c(C(C)(F)F)c3)nn2)nc1` [Example 550, 1-[2-[[1-[4-Chloro-3-(1,1-difluoroethyl)phenyl]triazol-4-yl]methoxy]pyrimidin-5-yl]ethanone], 0.016 µM.
Regarding `CCc1cnc(OCc2cn(-c3ccc(F)c(Cl)c3)nn2)nc1` [Example 621, 2-[[1-(3-Chloro-4-fluoro-phenyl)triazol-4-yl]methoxy]-5-ethyl-pyrimidine], the IC50 amounted to 0.003 µM.
The same measure, in the same setting: the same measure for `FCCOc1cnc(OCc2cn(-c3ccc(Cl)c(C(F)F)c3)nn2)nc1` [Example 636, 2-[[1-[4-Chloro-3-(difluoromethyl)phenyl]triazol-4-yl]methoxy]-5-(2-fluoroethoxy)pyrimidine]: 0.01 µM.
Same read-out and setting: the same measure for `CN(C)c1ccnc(OCc2cn(-c3ccc(F)c(OC(F)F)c3)nn2)n1` [Example 505, 2-[[1-[3-(Difluoromethoxy)-4-fluoro-phenyl]triazol-4-yl]methoxy]-N,N-dimethyl-pyrimidin-4-amine]: 0.007 µM; for `CC(O)c1cnc(OCc2cn(-c3ccc(F)c(C(C)(F)F)c3)nn2)nc1` (racemic) [Example 586, (R/S)-1-[2-[[1-[3-(1,1-Difluoroethyl)-4-fluoro-phenyl]triazol-4-yl]methoxy]pyrimidin-5-yl]ethanol]: 0.014 µM; for `CNc1nc(OCc2cn(-c3ccc(F)c(C(C)(F)F)c3)nn2)ncc1C` [Example 577, 2-[[1-[3-(1,1-Difluoroethyl)-4-fluoro-phenyl]triazol-4-yl]methoxy]-N,5-dimethyl-pyrimidin-4-amine]: 0.128 µM.
The same measure, in the same setting: under `CCc1cnc(OCc2cn(-c3ccnc(C)c3)nn2)nc1` [Example 664, 5-Ethyl-2-[[1-(2-methyl-4-pyridyl)triazol-4-yl]methoxy]pyrimidine] stands 0.169 µM; under `Cc1c(F)ccc(-n2cc(COc3ncc(C(C)C)cn3)nn2)c1F` [Example 639, 2-[[1-(2,4-Difluoro-3-methyl-phenyl)triazol-4-yl]methoxy]-5-isopropyl-pyrimidine], 0.052 µM.

The same assay, now with this note: standard assay; human GluN1/GluN2B, calcium flux (FLIPR), glutamate ~EC80.
Turning to `CC(=O)c1cnc(OCc2cn(-c3cccc(C(C)(F)F)c3)nn2)nc1` [Example 309, 1-[2-[[1-[3-(1,1-Difluoroethyl)phenyl]triazol-4-yl]methoxy]pyrimidin-5-yl]ethanone], the IC50 came out at 0.01 µM.
Same read-out and setting: the same measure for `FC(F)Oc1cc(-n2cc(CNc3ncco3)nn2)ccc1Cl` [Example 97, N-[[1-[4-Chloro-3-(difluoromethoxy)phenyl]triazol-4-yl]methyl]oxazol-2-amine]: 0.106 µM; for `CC(F)(F)c1cccc(-n2cc(COc3ncc(N4CCC4)cn3)nn2)c1` [Example 320, 5-(Azetidin-1-yl)-2-[[1-[3-(1,1-difluoroethyl)phenyl]triazol-4-yl]methoxy]pyrimidine]: 0.061 µM; for `CCc1cnc(NCc2cn(-c3ccc(F)c(C(F)F)c3)nn2)nc1` [Example 216, N-((1-(3-(Difluoromethyl)-4-fluorophenyl)-1H-1,2,3-triazol-4-yl)methyl)-5-ethylpyrimidin-2-amine]: 0.026 µM.
Still for that read-out and setting: under `Fc1ccc(-n2cc(CNc3ncc(Cl)cn3)nn2)cc1C(F)F` [Example 212, 5-Chloro-N-[[1-[3-(difluoromethyl)-4-fluoro-phenyl]triazol-4-yl]methyl]pyrimidin-2-amine] stands 0.074 µM; under `Fc1ccc(-n2cc(COc3ccc(C(F)(F)F)cn3)nn2)cc1OC(F)F` [Example 119, 2-[[1-[3-(Difluoromethoxy)-4-fluoro-phenyl]triazol-4-yl]methoxy]-5-(trifluoromethyl)pyridine], 0.114 µM; under `CC(F)(F)c1cc(-n2cc(COc3ncc(C(F)(F)F)cn3)nn2)ccc1F` [Example 71, 2-[[1-[3-(1,1-Difluoroethyl)-4-fluoro-phenyl]triazol-4-yl]methoxy]-5-(trifluoromethyl)pyrimidine], 0.04 µM.
Same read-out and setting: under `Cc1cnc(NCc2cn(-c3ccc(F)c(OC(F)F)c3)nn2)nc1` [Example 222, N-((1-(3-(Difluoromethoxy)-4-fluorophenyl)-1H-1,2,3-triazol-4-yl)methyl)-5-methylpyrimidin-2-amine] stands 0.064 µM.
`Fc1ccc(-n2cc(COc3ncccn3)nn2)cc1OC(F)F` [Example 33, 2-[[1-[3-(Difluoromethoxy)-4-fluoro-phenyl]triazol-4-yl]methoxy]pyrimidine]: the IC50 was determined as 0.018 µM.
Same read-out and setting: under `Fc1cnc(OCc2cn(-c3ccc(F)c(C(F)(F)F)c3)nn2)nc1` [Example 84, 5-Fuoro-2-[[1-[4-fluoro-3-(trifluoromethyl)phenyl]triazol-4-yl]methoxy]pyrimidine] stands 0.072 µM; under `CC(F)(F)c1cccc(-n2cc(COc3ncccn3)nn2)c1` [Example 292, 2-[[1-[3-(1,1-Difluoroethyl)phenyl]triazol-4-yl]methoxy]pyrimidine], 0.105 µM; under `Cc1ccnc(OCc2cn(-c3ccc(F)c(C(F)(F)F)c3)nn2)n1` [Example 83, 2-[[1-[4-Fluoro-3-(trifluoromethyl)phenyl]triazol-4-yl]methoxy]-4-methyl-pyrimidine], 0.02 µM.
Turning to `Cc1nc(OCc2cn(-c3cccc(C(C)(F)F)c3)nn2)ncc1Cl` [Example 312, 5-Chloro-2-[[1-[3-(1,1-difluoroethyl)phenyl]triazol-4-yl]methoxy]-4-methyl-pyrimidine], the IC50 came to 0.004 µM.
For `CC(N)c1ccnc(OCc2cn(-c3ccc(F)c(OC(F)F)c3)nn2)n1` (racemic) [Example 163, (R/S) 1-[2-[[1-[3-(Difluoromethoxy)-4-fluoro-phenyl]triazol-4-yl]methoxy]pyrimidin-4-yl]ethanamine], the IC50 was 1.4 µM.
Regarding `Cc1cnc(NCc2cn(-c3ccc(F)c(C(F)F)c3)nn2)nc1C` [Example 217, N-((1-(3-(Difluoromethyl)-4-fluorophenyl)-1H-1,2,3-triazol-4-yl)methyl)-4,5-dimethylpyrimidin-2-amine], the IC50 was determined as 0.012 µM.
The same measure, in the same setting: under `FC(F)(F)Oc1cccc(-n2cc(COc3ncccn3)nn2)c1` [Example 341, 2-[[1-[3-(Trifluoromethoxy)phenyl]triazol-4-yl]methoxy]pyrimidine] stands 0.538 µM; under `Fc1ccc(-n2cc(COc3ccccn3)nn2)cc1OC(F)F` [Example 4, 2-[[1-[3-(Difluoromethoxy)-4-fluoro-phenyl]triazol-4-yl]methoxy]pyridine], 0.392 µM; under `FC(F)Oc1ccc(-n2cc(COc3ncc(Cl)cn3)nn2)cc1` [Example 332, 5-Chloro-2-[[1-[4-(difluoromethoxy)phenyl]triazol-4-yl]methoxy]pyrimidine], 0.2 µM.
Regarding `Cc1cnc(O[C@H](C)c2cn(-c3ccc(Cl)c(OC(F)F)c3)nn2)nc1` [Example 376, 2-[(1R)-1-[1-[4-Chloro-3-(difluoromethoxy)phenyl]triazol-4-yl]ethoxy]-5-methyl-pyrimidine], the half-inhibitory concentration (IC50) came to 0.011 µM.
Same read-out and setting: under `COC(=O)c1ccnc(OCc2cn(-c3ccc(Cl)c(OC(F)F)c3)nn2)n1` [Example 387, Methyl 2-((1-(4-chloro-3-(difluoromethoxy)phenyl)-1H-1,2,3-triazol-4-yl)methoxy)pyrimidine-4-carboxylate] stands 0.068 µM.

As usually defined, the IC50 is the concentration that gives 50% inhibition.
